The source made the active and inactive calls. No cut-off for these calls is given here.
What was measured:
[1] = tested on: NCI/ADR-RES; assay: Antitumor activity against human MCF7/ADR cells xenografted in nu/nu nude mouse at 100 mg/kg, iv administered as injection in Q2D x 6 schedule; format: functional, organism-based; set-up: dose 100 mg/kg
[2] = tested on: CCRF-CEM; assay: Cytotoxicity against human CCRF-CEM cells after 72 hrs by XTT assay; format: functional, cell-based
[3] = tested on: CCRF-CEM; assay: Cytotoxicity against taxol-resistant human CCRF-CEM cells after 72 hrs by XTT assay; format: functional, cell-based
[4] = tested on: CCRF-CEM; assay: Cytotoxicity against vinblastine-resistant human CCRF-CEM cells after 72 hrs by XTT assay; format: functional, cell-based
[5] = tested on: CCRF-CEM; assay: Selectivity ratio of IC50 for taxol-resistant human CCRF-CEM cells to IC50 for human CCRF-CEM cells; format: functional
[6] = tested on: CCRF-CEM; assay: Selectivity ratio of IC50 for vinblastine-resistant human CCRF-CEM cells to IC50 for human CCRF-CEM cells; format: functional
[7] = tested on: MX1; assay: Cytotoxicity against human MX1 cells after 72 hrs by SRB assay; format: functional, cell-based; settings: MX1, 72 h
[8] = tested on: HCT-116; assay: Cytotoxicity against human HCT116 cells after 72 hrs by SRB assay; format: functional, cell-based; settings: HCT-116, 72 h
[9] = Cytotoxicity against human H1299 cells after 72 hrs by alamar blue assay; format: functional, cell-based; settings: NCI-H1299, 72 h
[10] = Cytotoxicity against human CL1-5 cells after 72 hrs by alamar blue assay; format: functional, cell-based; settings: CL1-5, 72 h
[11] = Cytotoxicity against human CL1-0 cells after 72 hrs by alamar blue assay; format: functional, cell-based; settings: CL1-0, 72 h
[12] = tested on: PC-3; assay: Cytotoxicity against human PC3 cells after 72 hrs by alamar blue assay; format: functional, cell-based; settings: PC-3, 72 h
[13] = tested on: MCF7; assay: Cytotoxicity against human MCF7 cells after 72 hrs by alamar blue assay; format: functional, cell-based; settings: MCF7, 72 h
[14] = tested on: MX1; assay: Antitumor activity against human MX1 cells xenografted in nu/nu nude mouse assessed as complete tumor remission at 150 mg/kg, iv administered as injection in Q2D x 5 schedule measured on day 16; format: functional, organism-based; set-up: dose 150 mg/kg
[15] = tested on: MX1; assay: Antitumor activity against human MX1 cells xenografted in nu/nu nude mouse assessed as complete tumor remission at 150 mg/kg, iv administered as injection in Q2D x 5 schedule measured on day 70; format: functional, organism-based; set-up: dose 150 mg/kg
[16] = tested on: Mus musculus; assay: Toxicity in nu/nu nude mouse assessed as body weight loss at 150 mg/kg, iv administered as injection in Q2D x 5 schedule measured on day 16; format: organism-based; set-up: dose 150 mg/kg, route intravenous; settings: in vivo
[17] = tested on: Mus musculus; assay: Toxicity in nu/nu nude mouse assessed as body weight loss at 150 mg/kg, iv administered as injection in Q2D x 5 schedule measured on day 18; format: organism-based; set-up: dose 150 mg/kg, route intravenous; settings: in vivo
[18] = tested on: Mus musculus; assay: Toxicity in nu/nu nude mouse assessed as body weight loss at 100 mg/kg, iv administered as injection in Q2D x 6 schedule; format: organism-based; set-up: dose 100 mg/kg, route intravenous; settings: in vivo
[19] = Metabolic stability in rat plasma assessed as half life; format: ADME, cell-free
[20] = tested on: Nucleic Acid; assay: Binding affinity to pEGFP-N1 DNA assessed as formation of interstrand cross-links with DNA by alkaline gel shift assay; format: nucleic-acid assay
[21] = tested on: Nucleic Acid; assay: Binding affinity to DNA in human H1299 cells assessed as formation of DNA cross-links after irradiation by modified single cell gel electrophoresis comet assay; format: cell-based
[22] = tested on: Nucleic Acid; assay: Binding affinity to DNA in human H1299 cells assessed as formation of DNA cross-links at 10 uM followed by irradiation by modified single cell gel electrophoresis comet assay; format: cell-based

Cc1cc(NC(=O)Nc2ccc(N(CCCl)CCCl)cc2)c2ccccc2n1
Activity [1]: Active | IC50 [2]: 0.193 µM | IC50 [3]: 0.429 µM | IC50 [4]: 0.664 µM | Ratio IC50 [5]: 2.2 | Ratio IC50 [6]: 3.4 | IC50 [7]: 0.343 µM | IC50 [8]: 1.42 µM | IC50 [9]: 1.98 µM | IC50 [10]: 9.45 µM | IC50 [11]: 9.02 µM | IC50 [12]: 9.52 µM | IC50 [13]: 9.08 µM | Activity [14]: Active | Activity [15]: Active | Activity [16]: 2% | Activity [17]: Non-toxic | Activity [18]: Non-toxic | half-life [19]: 16.5 h | Activity [20]: Active | Activity [21]: Dose-dependent effect | Activity [22]: 31.3%

Source: ChEMBL document CHEMBL1157637, “Potent DNA-directed alkylating agents: Synthesis and biological activity of phenyl N-mustard-quinoline conjugates having a urea or hydrazinecarboxamide linker” (Bioorg Med Chem, 2010)
